Data published in patent publication US12459941B2, “Tricyclic IRAK inhibitors” (Rigel Pharmaceuticals, Inc., priority 2022, dated 2025).

How the values were obtained:
IRAK4 = target: T1, IRAK4 (Homo sapiens, UniProt Q9NWZ3); assay: IRAK4 ADP-Glo assay; format: biochemical; settings: 8 pt curve; read-out: IRAK4 ADP-Glo Kinase, 8 pt
T1 construct: purchased Signalchem I12-10G-20
T1 sequence (Q9NWZ3 1-460): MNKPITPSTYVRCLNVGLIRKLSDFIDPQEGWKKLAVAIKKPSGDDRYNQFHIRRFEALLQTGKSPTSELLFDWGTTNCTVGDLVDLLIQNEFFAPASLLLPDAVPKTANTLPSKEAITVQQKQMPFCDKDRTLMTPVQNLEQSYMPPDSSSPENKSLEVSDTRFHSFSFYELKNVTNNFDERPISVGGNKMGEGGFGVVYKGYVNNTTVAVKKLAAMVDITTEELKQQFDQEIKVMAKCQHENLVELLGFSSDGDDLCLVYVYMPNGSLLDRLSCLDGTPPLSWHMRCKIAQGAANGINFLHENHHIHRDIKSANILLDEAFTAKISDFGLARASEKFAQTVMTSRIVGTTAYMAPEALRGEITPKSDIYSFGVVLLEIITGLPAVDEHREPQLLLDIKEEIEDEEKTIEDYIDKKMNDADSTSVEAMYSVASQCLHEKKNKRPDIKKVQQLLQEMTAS
Protocol: IRAK4 Kinase Enzyme (Signalchem, I12-10G-20); 0.1M DTT (Signalchem, D86-09B); MBP Substrate (Signalchem, M42-51N); ADP Glo (Promega, V9101); 1M MgCl2 (Teknova, M03304); 1M Tris-HCl pH7.4 (Teknova, T1074); BSA (Sigma (A3059); Distilled H2O
Wallac Victor2 1420 Multilabel Counter
The ADP-Glo™ reagents were thawed at ambient temperature. The Kinase Detection Reagent was prepared by mixing kinase detection buffer with the lyophilized kinase detection substrate, and set aside.
A stock volume of 5× Reaction Kinase Buffer was made with a final concentration of 100 mM MgCl2, 200 mM Tris-HCl, and 0.5 mg/ml of BSA, in distilled H2O with a final pH7.4. A 2× working stock volume of Reaction Kinase Buffer was made containing a final concentration of […].
The components of IRAK4 Enzyme were thawed on ice. Diluted IRAK4 in 1× Kinase Reaction Buffer (diluted from 2× buffer) was prepared at […]. A […] working stock ATP Assay Solution was prepared in 1× Kinase Reaction Buffer (diluted from 2× buffer).
The compound was diluted in DMSO from 250 µM in 4-fold series dilutions for 8 points. Then diluted 1:5 in 2× Reaction Buffer in a 96 well plate. 1.01 was transferred to a 384 well plate in duplicate. […] 1 μl of 1 mg/ml stock solution of MBP substrate was added NOTE: MBP can be combined with ATP mix with equal volume and then added at 2 d/well. Final reaction volume was 5 μl.
The plate was centrifuged and the reaction mixture was incubated at room temperature for 60 minutes or at 30° C. for 30 minutes.
The reaction was terminated and the remaining ATP was depleted by adding 5 μl of ADP-Glo™ Reagent. The 384-well plate was centrifuged and then the reaction mixture was incubated for another 40 minutes at ambient temperature.
10 μl of the Kinase Detection Reagent was added. The plate was centrifuged and then the reaction mixture was incubated for another 30 minutes at ambient temperature.
The 384-well reaction plate was read using the WALLAC plate reader (Luminescence 0.1s).

TNFa [1] = assay: TNFa ELISA, dendritic cells, Gardiquimod stimulated; format: cell-based; settings: Homo sapiens, Dendritic cell, 10 pt curve
TNFa [2] = assay: TNFa ELISA, PBMC, Resiquimod (R848) stimulated; format: cell-based; settings: 10 pt curve
IRAK1 = IRAK1 (Homo sapiens, UniProt P51617); assay: IRAK1 ADP-Glo Kinase assay; format: biochemical; settings: 8 pt curve
Chain of IRAK1 (P51617 whole entry): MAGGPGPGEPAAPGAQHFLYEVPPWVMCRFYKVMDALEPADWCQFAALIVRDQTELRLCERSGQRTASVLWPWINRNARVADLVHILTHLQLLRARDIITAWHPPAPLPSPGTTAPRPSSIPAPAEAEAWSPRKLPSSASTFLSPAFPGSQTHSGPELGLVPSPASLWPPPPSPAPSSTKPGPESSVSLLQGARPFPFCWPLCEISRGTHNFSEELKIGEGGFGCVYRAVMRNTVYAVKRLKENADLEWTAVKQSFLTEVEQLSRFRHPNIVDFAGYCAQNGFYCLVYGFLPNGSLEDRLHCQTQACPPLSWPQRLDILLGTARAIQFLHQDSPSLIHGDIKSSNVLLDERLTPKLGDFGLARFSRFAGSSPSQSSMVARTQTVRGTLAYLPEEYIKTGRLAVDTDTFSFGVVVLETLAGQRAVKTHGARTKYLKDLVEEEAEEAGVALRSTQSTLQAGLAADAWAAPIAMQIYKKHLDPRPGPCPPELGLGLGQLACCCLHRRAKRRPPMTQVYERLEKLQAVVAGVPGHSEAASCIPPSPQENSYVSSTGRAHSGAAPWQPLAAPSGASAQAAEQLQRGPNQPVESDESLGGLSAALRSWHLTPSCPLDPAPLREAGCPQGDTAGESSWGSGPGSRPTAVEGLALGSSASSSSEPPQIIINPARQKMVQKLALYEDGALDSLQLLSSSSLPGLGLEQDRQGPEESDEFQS

| IC50 (IRAK4) | EC50 (TNFa [1]) | EC50 (TNFa [2]) | IC50 (IRAK1) | SMILES |
| --- | --- | --- | --- | --- |
| 160 nM | 5680 nM | 4390 nM | – | O=C1CC[C@@H](COc2nccc3cc4c(=O)[nH]ccc4cc23)N1 [I-5, (S)-6-((5-oxopyrrolidin-2-yl)methoxy)pyrido[3,4-g]isoquinolin-1(2H)-one] |
| 3.1 nM | 45.8 nM | 32.2 nM | – | O=C1CC[C@@H](COc2nccc3cc4c(=O)[nH]cc(I)c4cc23)N1 [I-6, (S)-4-iodo-6-((5-oxopyrrolidin-2-yl)methoxy)pyrido[3,4-g]isoquinolin-1(2H)-one] |
| 4.8 nM | 215 nM | 192 nM | 4280 nM | C=Cc1c[nH]c(=O)c2cc3ccnc(OC[C@@H]4CCC(=O)N4)c3cc12 [I-7, (S)-6-((5-oxopyrrolidin-2-yl)methoxy)-4-vinylpyrido[3,4-g]isoquinolin-1(2H)-one] |
| 8.5 nM | 148 nM | 112 nM | 7230 nM | CCc1c[nH]c(=O)c2cc3ccnc(OC[C@@H]4CCC(=O)N4)c3cc12 [I-8, (S)-4-ethyl-6-((5-oxopyrrolidin-2-yl)methoxy)pyrido[3,4-g]isoquinolin-1(2H)-one] |
| 14.5 nM | 419 nM | 376 nM | 6860 nM | C=CCc1c[nH]c(=O)c2cc3ccnc(OC[C@@H]4CCC(=O)N4)c3cc12 [I-9, (S)-4-allyl-6-((5-oxopyrrolidin-2-yl)methoxy)pyrido[3,4-g]isoquinolin-1(2H)-one] |
| 74.2 nM | 613 nM | 369 nM | 11100 nM | CCCc1c[nH]c(=O)c2cc3ccnc(OC[C@@H]4CCC(=O)N4)c3cc12 [I-10, (S)-6-((5-oxopyrrolidin-2-yl)methoxy)-4-propylpyrido[3,4-g]isoquinolin-1(2H)-one] |
| 7.8 nM | – | 75 nM | 6490 nM | C=C(C)c1c[nH]c(=O)c2cc3ccnc(OC[C@@H]4CCC(=O)N4)c3cc12 [I-11, (S)-6-((5-oxopyrrolidin-2-yl)methoxy)-4-(prop-1-en-2-yl)pyrido[3,4-g]isoquinolin-1(2H)-one] |
| 39.6 nM | 11700 nM | 203 nM | 7860 nM | O=C1CC[C@@H](COc2nccc3cc4c(=O)[nH]cc(C5CCC5)c4cc23)N1 [I-12, (S)-4-cyclobutyl-6-((5-oxopyrrolidin-2-yl)methoxy)pyrido[3,4-g]isoquinolin-1(2H)-one] |
| 22.2 nM | – | 1660 nM | 10300 nM | N#Cc1c[nH]c(=O)c2cc3ccnc(OC[C@@H]4CCC(=O)N4)c3cc12 [I-16, (S)-1-oxo-6-((5-oxopyrrolidin-2-yl)methoxy)-1,2-dihydropyrido[3,4-g]isoquinoline-4-carbonitrile] |
| 14.4 nM | 358 nM | 337 nM | 12000 nM | C#Cc1c[nH]c(=O)c2cc3ccnc(OC[C@@H]4CCC(=O)N4)c3cc12 [I-18, (S)-4-ethynyl-6-((5-oxopyrrolidin-2-yl)methoxy)pyrido[3,4-g]isoquinolin-1(2H)-one] |
| 105 nM | 177 nM | 208 nM | 14800 nM | O=C1CC[C@@H](COc2nccc3cc4c(=O)[nH]cc(CC(F)(F)F)c4cc23)N1 [I-19, (S)-6-((5-oxopyrrolidin-2-yl)methoxy)-4-(2,2,2-trifluoroethyl)pyrido[3,4-g]isoquinolin-1(2H)-one] |
| 2400 nM | – | – | – | O=C1CC[C@@H](COc2nccc3cc4c(=O)[nH]cc(C5CNC5)c4cc23)N1 [I-23, (S)-4-(azetidin-3-yl)-6-((5-oxopyrrolidin-2-yl)methoxy)pyrido[3,4-g]isoquinolin-1(2H)-one] |
| 5350 nM | – | 1780 nM | – | CC(C)(N)c1c[nH]c(=O)c2cc3ccnc(OC[C@@H]4CCC(=O)N4)c3cc12 [I-26, (S)-4-(2-aminopropan-2-yl)-6-((5-oxopyrrolidin-2-yl)methoxy)pyrido[3,4-g]isoquinolin-1(2H)-one] |
| 988 nM | – | – | – | NC(=O)c1c[nH]c(=O)c2cc3ccnc(OC[C@@H]4CCC(=O)N4)c3cc12 [I-27, (S)-1-oxo-6-((5-oxopyrrolidin-2-yl)methoxy)-1,2-dihydropyrido[3,4-g]isoquinoline-4-carboxamide] |
| 27.3 nM | – | 5650 nM | – | CC(=O)c1c[nH]c(=O)c2cc3ccnc(OC[C@@H]4CCC(=O)N4)c3cc12 [I-28, (S)-4-acetyl-6-((5-oxopyrrolidin-2-yl)methoxy)pyrido[3,4-g]isoquinolin-1(2H)-one] |
| 28 nM | 25600 nM | – | 3010 nM | O=C1CC[C@@H](COc2nccc3cc4c(=O)[nH]cc(-c5cn[nH]c5)c4cc23)N1 [I-33, (S)-6-((5-oxopyrrolidin-2-yl)methoxy)-4-(1H-pyrazol-4-yl)pyrido[3,4-g]isoquinolin-1(2H)-one] |
| 62.7 nM | 63800 nM | 1030 nM | 11300 nM | CC(O)c1c[nH]c(=O)c2cc3ccnc(OC[C@@H]4CCC(=O)N4)c3cc12 (stereo partly drawn) [I-36, 4-(1-hydroxyethyl)-6-(((S)-5-oxopyrrolidin-2-yl)methoxy)pyrido[3,4-g]isoquinolin-1(2H)-one] |
| 1210 nM | 44000 nM | – | 11000 nM | C#CC(C)(O)c1c[nH]c(=O)c2cc3ccnc(OC[C@@H]4CCC(=O)N4)c3cc12 (stereo partly drawn) [I-37, 4-(2-hydroxybut-3-yn-2-yl)-6-(((S)-5-oxopyrrolidin-2-yl)methoxy)pyrido[3,4-g]isoquinolin-1(2H)-one] |
| 2540 nM | – | – | – | NC(=O)Cc1c[nH]c(=O)c2cc3ccnc(OC[C@@H]4CCC(=O)N4)c3cc12 [I-41, (S)-2-(1-oxo-6-((5-oxopyrrolidin-2-yl)methoxy)-1,2-dihydropyrido[3,4-g]isoquinolin-4-yl)acetamide] |
| 4.2 nM | 2 nM | 5.2 nM | 27.7 nM | CC[C@@H]1[C@H](F)C(=O)N[C@@H]1COc1nccc2cc3c(=O)[nH]cc(I)c3cc12 [I-44, 6-(((2S,3S,4S)-3-ethyl-4-fluoro-5-oxopyrrolidin-2-yl)methoxy)-4-iodopyrido[3,4-g]isoquinolin-1(2H)-one] |
| 5.5 nM | 3.4 nM | 2.7 nM | 18 nM | CC[C@@H]1[C@H](F)C(=O)N[C@@H]1COc1nccc2cc3c(=O)[nH]cc(C)c3cc12 [I-45, 6-(((2S,3S,4S)-3-ethyl-4-fluoro-5-oxopyrrolidin-2-yl)methoxy)-4-methylpyrido[3,4-g]isoquinolin-1(2H)-one] |
| 6.5 nM | 239 nM | 295 nM | 1120 nM | CC[C@@H]1[C@H](F)C(=O)N[C@@H]1COc1nccc2cc3c(=O)[nH]ccc3cc12 [I-46, 6-(((2S,3S,4S)-3-ethyl-4-fluoro-5-oxopyrrolidin-2-yl)methoxy)pyrido[3,4-g]isoquinolin-1(2H)-one] |
| 13800 nM | – | 10100 nM | – | CS(=O)(=O)c1c[nH]c(=O)c2cc3ccnc(OC[C@@H]4CCC(=O)N4)c3cc12 [I-48, (S)-4-(methylsulfonyl)-6-((5-oxopyrrolidin-2-yl)methoxy)pyrido[3,4-g]isoquinolin-1(2H)-one] |
| – | – | 1440 nM | – | CC(C)(O)C#Cc1c[nH]c(=O)c2cc3ccnc(OC[C@@H]4CCC(=O)N4)c3cc12 [I-49, (S)-4-(3-hydroxy-3-methylbut-1-yn-1-yl)-6-((5-oxopyrrolidin-2-yl)methoxy)pyrido[3,4-g]isoquinolin-1(2H)-one] |
| 2190 nM | – | – | – | CC(C)Cc1c[nH]c(=O)c2cc3ccnc(OC[C@@H]4CCC(=O)N4)c3cc12 [I-50, (S)-4-isobutyl-6-((5-oxopyrrolidin-2-yl)methoxy)pyrido[3,4-g]isoquinolin-1(2H)-one] |
| 10 nM | – | 4 nM | 77.4 nM | CC[C@@H]1[C@H](F)C(=O)N[C@@H]1COc1nccc2cc3c(=O)[nH]cc(C(C)C)c3cc12 [I-51, 6-(((2S,3S,4S)-3-ethyl-4-fluoro-5-oxopyrrolidin-2-yl)methoxy)-4-isopropylpyrido[3,4-g]isoquinolin-1(2H)-one] |
